The values below come from PubChem BioAssay (NCI).

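Compound exposure: 48 hours, 5 concentrations, 96-well plates. Definition used: TGI = concentration required for complete inhibition of growth.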

Assay in all cases: NCI anticancer screen, dose series, 48 h
The test system of experiment [1] is CCRF-CEM leukemia.
Experiment [2] deals with HCT-116 colon.
Experiment [3] deals with HL-60(TB) leukemia.
Experiment [4] has as its system HT29 colon.
The test system of experiment [5] is K-562 leukemia.
The subject of experiment [6] is MOLT-4 leukemia.
Experiment [7] has as its system NCI-H23 lung.
The test system of experiment [8] is OVCAR-3 ovarian.
Experiment [9] deals with OVCAR-8 ovarian.
For experiment [10], the system named is RXF 393 renal.
For experiment [11], the system named is SF-295 CNS.
The test system of experiment [12] is SK-MEL-2 melanoma.
In experiment [13] the test system is SK-MEL-28 melanoma.
For experiment [14], the system named is SK-OV-3 ovarian.
In experiment [15] the test system is SN12C renal.
The test system of experiment [16] is SNB-19 CNS.
Experiment [17] relates to COLO 205 colon.
Experiment [18] concerns NCI/ADR-RES ovarian.
Experiment [19] has as its system SW-620 colon.
For experiment [20], the system named is HCC-2998 colon.

As to `CC(Oc1ccc(OCC2CCCCC2)cc1)C(=O)NCCO` (centres undefined), the TGI in experiment [1], in experiment [2], in [3], in [4], in [5] and in experiment [6] was greater than 100 µM each time. For the same molecule, the TGI in experiment [7], in [8], in experiment [9], in experiment [10], in experiment [11] and in experiment [12] was greater than 100 µM each time. Besides, the TGI in experiment [13], in [14], in experiment [15] and in [16] was greater than 100 µM in each case.
For `COC(=O)[C@@]1(Cc2ccc(O)cc2)C[C@@H]2Cc3ccccc3N2N1`, the TGI in experiment [17], in [2], in experiment [4], in [6], in experiment [7] and in [18] was greater than 100 µM each time. The TGI in experiment [8] is greater than 100 µM; in experiment [9], greater than 100 µM; in [11], greater than 100 µM; in experiment [12] it was 92.8 µM; in [13], greater than 100 µM; in experiment [14], greater than 100 µM. The TGI in experiment [15], in [16] and in experiment [19] was greater than 100 µM throughout.
Take `COC(=O)c1c2c(cc3c1CC1(C3)Cc3cc4c(c(C(C)=O)c3C1)CCC4)C=CC2` (centres undefined): the TGI in [1], in experiment [17], in experiment [2], in [3], in experiment [4] and in [5] was greater than 31.6 µM throughout. Besides, the TGI in [6], in [7], in experiment [18], in experiment [8], in experiment [9] and in [11] was greater than 31.6 µM throughout. Further, the TGI in [12], in experiment [13], in experiment [15] and in experiment [16] was greater than 31.6 µM throughout.
For the molecule `c1cnc2c(c1)-n1cccc1C1(CCSC1)NN2` (centres undefined), the TGI in [1], in [17], in [20], in experiment [2], in [3] and in [4] was greater than 100 µM each time. In addition, the TGI in experiment [5], in experiment [6], in experiment [7], in [8], in experiment [9] and in [11] was greater than 100 µM throughout. The TGI in [12], in experiment [13], in experiment [15], in experiment [16] and in experiment [19] was greater than 100 µM throughout.
In the case of `COC(=O)C(Cc1ccccc1)NP(=O)(O)OCC1OC(n2cc(I)c(=O)[nH]c2=O)CC1O` (centres undefined), the TGI in [1], in experiment [17], in [2], in experiment [3], in experiment [4] and in experiment [5] was greater than 100 µM throughout. Besides, the TGI in experiment [6], in experiment [7], in experiment [18], in experiment [8], in experiment [9] and in [11] was greater than 100 µM each time. Besides, the TGI in experiment [13], in [14], in experiment [15], in experiment [16] and in experiment [19] was greater than 100 µM each time.
Turning to `Cc1ccc(NCC(=O)N2CC(=O)Nc3ccccc32)cc1`, the TGI in [1], in experiment [17], in [20], in [2], in experiment [3] and in experiment [4] was greater than 100 µM in each case. In addition, the TGI in [5], in [6], in experiment [7], in experiment [8], in experiment [9] and in [10] was greater than 100 µM throughout. Also, the TGI in experiment [11], in [12], in experiment [13], in experiment [14], in [15] and in [16] was greater than 100 µM throughout. The molecule also came in with a TGI in experiment [19] greater than 100 µM.
As for `CCOC(=O)/C(N=Nc1ccc(-n2c(C)nc3ccc(Br)cc3c2=O)cc1)=C(/C)O`, the TGI in [1], in experiment [17], in experiment [2], in [3], in experiment [4] and in experiment [5] was greater than 100 µM in each case. For the same molecule, the TGI in [6], in experiment [7], in [18], in [8], in experiment [9] and in experiment [11] was greater than 100 µM in each case. The TGI in experiment [12], in experiment [13], in experiment [14], in experiment [15], in experiment [16] and in experiment [19] was greater than 100 µM in each case.
With `CC(=O)OC1CC2(C)OC(Cc3ccccc32)O1` (centres undefined), the TGI in experiment [1], in experiment [17], in [20], in experiment [2], in [3] and in [4] was greater than 100 µM each time. In addition, the TGI in experiment [5], in experiment [6], in experiment [7], in experiment [8], in experiment [9] and in experiment [10] was greater than 100 µM in each case. For the same molecule, the TGI in experiment [11], in experiment [12], in experiment [13], in experiment [14], in [15] and in experiment [16] was greater than 100 µM throughout. In addition, in experiment [19], the TGI was greater than 100 µM.
`CCC12CCCNC1c1c(n(C)c3ccccc13)C(C(=O)OC)C2` (centres undefined): the TGI is greater than 275 µM in experiment [1]; 82.5 µM in experiment [17]; greater than 275 µM in experiment [20]; greater than 275 µM in experiment [2]; greater than 275 µM in experiment [3]; 114 µM in experiment [4]. Also, the TGI was greater than 275 µM in experiment [5]; greater than 275 µM in experiment [6]; 252 µM in [7]; 91.1 µM in experiment [8]; greater than 275 µM in experiment [9]; 153 µM in [10]. Also, the TGI in [11] was 124 µM; in experiment [12], 259 µM; in experiment [13], greater than 275 µM; in [14], 186 µM; in [15], greater than 275 µM; in experiment [16], greater than 275 µM. The same molecule had a TGI in experiment [19] greater than 275 µM.
On to `Cc1cc(C)n2c(-c3ccccc3)c(C)cc2n1`, for which the TGI in [1] was 43.6 µM; in experiment [17], greater than 100 µM; in [20] it was greater than 100 µM; in [2], greater than 100 µM; in experiment [3], 50.4 µM; in [4], greater than 100 µM. Besides, the TGI in experiment [5] is greater than 100 µM; in [7], greater than 100 µM; in experiment [8], 83.3 µM; in experiment [9], greater than 100 µM; in experiment [10], greater than 100 µM; in experiment [11], greater than 100 µM. Besides, the TGI in experiment [12], in experiment [13], in experiment [14], in experiment [15], in experiment [16] and in experiment [19] was greater than 100 µM each time.
Turning to `COc1cccc(CCNc2c(C#N)c3nc4ccccc4n3c3ccccc23)c1`, the TGI in experiment [1] was greater than 100 µM; in experiment [17], greater than 47.4 µM; in experiment [20], greater than 100 µM; in [2], greater than 61.5 µM; in experiment [3], greater than 100 µM; in [4], greater than 100 µM. Also, the TGI in [5] was greater than 100 µM; in experiment [6], greater than 100 µM; in [7], greater than 30.5 µM; in experiment [8], greater than 100 µM; in experiment [9], greater than 100 µM; in [10], greater than 100 µM. In addition, the TGI in [11] was greater than 100 µM; in [12], greater than 100 µM; in [13] it was greater than 100 µM; in experiment [14], greater than 100 µM; in [15] it was greater than 70 µM; in [16], greater than 86 µM. The same molecule showed a TGI in experiment [19] greater than 100 µM.
Regarding `Cc1ccc(S(=O)(=O)N2c3ccccc3[C@H]3CCC=C[C@H]32)cc1`, the TGI was greater than 87.2 µM in experiment [1]; 24.6 µM in [17]; greater than 76.5 µM in [20]; 19.6 µM in experiment [2]; 28.8 µM in experiment [3]; 19.2 µM in experiment [4]. In addition, the TGI in [5] is greater than 81.3 µM; in experiment [6], greater than 73.8 µM; in experiment [7], 52.3 µM; in [8], 28.4 µM; in experiment [9], greater than 88.5 µM; in [10] it was 19 µM. In addition, the TGI in experiment [11] is 32.4 µM; in experiment [12] it was 39.2 µM; in experiment [13] it was greater than 96.1 µM; in experiment [14], 28.6 µM; in experiment [15], greater than 63.1 µM; in [16], greater than 100 µM. Besides, the TGI in experiment [19] came to 47.7 µM.
Consider `CC(C)OP(=O)(OC(C)C)c1ccc2c(c1)OCCOCCOCCOCCO2`, for which the TGI in [1], in experiment [17], in [20], in [2], in [3] and in experiment [4] was greater than 100 µM in each case. For the same molecule, the TGI in [5], in [6], in experiment [7], in [9], in [11] and in experiment [13] was greater than 100 µM throughout. Besides, the TGI in experiment [14], in [15], in experiment [16] and in experiment [19] was greater than 100 µM each time.
`Cc1ccc(N=C2S/C(=C3/CCC=C3N3CCOCC3)N(c3ccc(Cl)cc3)C2=Nc2ccc(C)cc2)cc1`: the TGI in experiment [17], in [20], in experiment [2], in [3], in experiment [4] and in experiment [5] was greater than 100 µM in each case. In addition, the TGI in [6], in experiment [7], in experiment [9], in experiment [10], in experiment [12] and in experiment [13] was greater than 100 µM throughout. For the same molecule, the TGI in experiment [15], in [16] and in [19] was greater than 100 µM throughout.
`C[C@H](NC(=O)n1c2ccccc2c2ccccc21)C(=O)O`: the TGI in experiment [1], in [17], in experiment [20], in [2], in experiment [3] and in experiment [4] was greater than 100 µM in each case. Also, the TGI in experiment [5], in experiment [6], in experiment [7], in experiment [8], in experiment [9] and in experiment [10] was greater than 100 µM each time. For the same molecule, the TGI in experiment [11], in experiment [12], in [13], in experiment [14], in experiment [15] and in experiment [16] was greater than 100 µM in each case. For the same molecule, the TGI in experiment [19] was greater than 100 µM.
As for `S=C(N/N=C/c1ccccn1)Nc1ccc(Cl)cc1`, the TGI in experiment [1] was 1.92 µM; in [17], greater than 100 µM; in experiment [20] it was greater than 57.7 µM; in [2], greater than 88.5 µM; in [3] it was 0.0796 µM; in experiment [4] it was greater than 100 µM. For the same molecule, the TGI in experiment [6] was greater than 100 µM; in experiment [7], greater than 100 µM; in [8] it was greater than 100 µM; in [9] it was greater than 42.8 µM; in experiment [11], greater than 91.7 µM; in [12] it was greater than 100 µM. In addition, the TGI in experiment [13] was greater than 100 µM; in experiment [14], 10.5 µM; in experiment [15] it was greater than 100 µM; in experiment [16], greater than 39 µM; in experiment [19], greater than 100 µM.
